The values that follow come from ChEMBL document CHEMBL1130761, “Synthesis of 2,3,4a,11b-tetrahydro-oxazino[2,3-c]benzopyran-9-carbonitriles as ATP-sensitive potassium channel openers” (Bioorg Med Chem Lett, 1998).

Usually IC50 stands for the concentration at which inhibition is half-maximal.

Common to all, as to assay type: functional
The species named for assay [1] is Rattus norvegicus. Nature of the assay: Mechanoinhibitory activity was evaluated by spontaneous contraction of rat portal vein.
For assay [2], the species on record is Rattus norvegicus. Nature of the assay: Mechanoinhibitory activity in presence of Glibenclamide (1 uM) was evaluated in KCl stimulated rat detrusor strip.
A short description of assay [3]: Mechanoinhibitory activity was evaluated by the ratio of IC50(portal vein)/IC50(bladder).
The species entered for assay [4] is Rattus norvegicus. Nature of the assay: Mechanoinhibitory activity was evaluated in KCl stimulated rat detrusor strip.
The species entered for assay [5] is Rattus norvegicus. Nature of the assay: Mechanoinhibitory activity in presence of Glibenclamide (1 uM) was evaluated by spontaneous contraction of rat portal vein.
For assay [6], the species on record is Rattus norvegicus. Nature of the assay: Mechanoinhibitory activity (bladder-selective potassium channel opening activity) was evaluated in KCl stimulated rat detrusor strip.
Assay [7] is filed under the species Rattus norvegicus. Nature of the assay: Mechanoinhibitory activity was evaluated by spontaneous contraction of rat portal vein; + indicates enhancement in spontaneous contraction was observed.

On to `CN1C(=O)CO[C@H]2[C@@H]1c1cc(C#N)ccc1OC2(C)C`, for which the half-inhibitory concentration (IC50) in assay [1] was found to be 26.2 µM; in assay [2] it was 129 µM; in assay [4], 65.7 µM; in assay [5], 28.3 µM. Also, the Ratio in assay [3] is on record as 0.4.
For the compound `CC1(C)Oc2ccc(C#N)cc2[C@@H]2[C@H]1OCCN2C(=O)c1ccccc1`, the IC50 was 8.15 µM in assay [6], 34.5 µM in assay [1], 32.8 µM in assay [2] and 45.5 µM in assay [5]. For the same compound, the Ratio in assay [3] is listed as 4.23.
Take `CC(=O)N1CCO[C@@H]2[C@H]1c1cc(C#N)ccc1OC2(C)C`: the IC50 in assay [1] came to 2.7 µM; in assay [2] it was 53.2 µM; in assay [4] it was 8.8 µM; in assay [5], 60.9 µM. Further, the Ratio in assay [3] came to 0.31.
Consider `CN1C(=O)CO[C@H]2[C@H]1c1cc(C#N)ccc1OC2(C)C`, for which the IC50 was determined as 50.2 µM in assay [1], 79.5 µM in assay [2], 43.8 µM in assay [4] and 72.8 µM in assay [5]. The Ratio in assay [3] is on record as 1.15.
As for `CC1(C)Oc2ccc(C#N)cc2[C@@H]2[C@@H]1OCCN2C=O`, the IC50 in assay [2] came to 158 µM; in assay [4], 152 µM. Moreover, in assay [7], the “Effect on spontaneous contraction” value is listed as “enhancement in spontaneous contraction”.
As to `CC(=O)N1CCO[C@H]2[C@H]1c1cc(C#N)ccc1OC2(C)C`, the IC50 in assay [1] worked out at 5.9 µM; in assay [2], 153 µM; in assay [4], 70.1 µM; in assay [5], 79.3 µM. In assay [3], the Ratio is 0.08.
On to `CC(C)C(=O)N1CCO[C@H]2[C@H]1c1cc(C#N)ccc1OC2(C)C`, for which the IC50 in assay [1] stood at 127 µM; in assay [2], 244 µM; in assay [4] it was 104 µM. Further, the Ratio in assay [3] came out at 1.22.
As to `CC1(C)Oc2ccc(C#N)cc2[C@@H]2[C@@H]1OCC(=O)N2Cc1ccccc1`, the half-maximal inhibitory concentration (IC50) turned out to be 130 µM in assay [2] and 68.2 µM in assay [4]. Besides, in assay [7], the “Effect on spontaneous contraction” value is given as “enhancement in spontaneous contraction”.
As for `CC(C)C(=O)N1CCO[C@@H]2[C@H]1c1cc(C#N)ccc1OC2(C)C`, the IC50 in assay [1] was determined as 18.4 µM; in assay [2] it was 268 µM; in assay [4], 56.4 µM; in assay [5] it was 58.9 µM. Besides, the Ratio in assay [3] worked out at 0.33.
On the same counts, the results for `CCC(=O)N1CCO[C@H]2[C@H]1c1cc(C#N)ccc1OC2(C)C` are 64.9 µM, 318 µM, 47.2 µM, 92.6 µM and 1.38.
For `CC1(C)Oc2ccc(C#N)cc2[C@@H]2[C@@H]1OCCN2C(=O)c1ccccc1`, the results for the IC50 in assay [2] and in assay [4] were 123 µM and 66 µM, respectively. Moreover, in assay [7], the “Effect on spontaneous contraction” value is reported as “enhancement in spontaneous contraction”.
For the compound `CC1(C)Oc2ccc(C#N)cc2[C@@H]2[C@H]1OCCN2C=O`, the IC50 in assay [1] was 62.8 µM; in assay [2], 279 µM; in assay [4], 51.8 µM; in assay [5], 117 µM. Further, in assay [3], the Ratio is given as 1.21.
On the same counts, the results for `CCC(=O)N1CCO[C@@H]2[C@H]1c1cc(C#N)ccc1OC2(C)C` are 20.1 µM, 141 µM, 51.8 µM, 52.6 µM and 0.39.
Taken in the same sequence, the figures for `CC1(C)Oc2ccc(C#N)cc2[C@@H](N2CCCC2=O)[C@@H]1O` [LEVCROMAKALIM] were 0.13 µM, 8.7 µM, 0.82 µM, 4.9 µM and 0.16.
On to `CC1(C)Oc2ccc(C#N)cc2[C@H]2NC(=O)CO[C@@H]21`, for which the IC50 in assay [2] was 56.3 µM; in assay [4], 53.1 µM. Besides, the “Effect on spontaneous contraction” value in assay [7] is recorded as “enhancement in spontaneous contraction”.
